US10696686B2, “Herbicidally active (alkynyl-phenyl)-substituted cyclic dione compounds and derivatives thereof” (Syngenta Limited, priority 2013, dated 2020)

What was measured:
Format in all cases: in vivo
[1] = test system: Alopecurus myosuroides (ALOMY); experiment: Biological Example 2 glasshouse assay (IF50 formulation, X-77), post-emergence; settings: 14 or 15 DAA
Description: (§1) Seeds of a variety of monocotyledonous and dicotyledonous test plants are sown in standard soil in pots. The plants are cultivated for one day (for pre-emergence) or for about 12 days (range=10-13 days) (for post-emergence) under controlled conditions in a glasshouse (warm climate species at 24/18° C., cool climate species at 20/16° C., both at day/night; 16 hours light; 65% humidity). An “instant formulation”, known as the “IF50”, containing 50 g/litre (i.e. 5% w/v) of the “technical” (i.e. unformulated) active ingredient is prepared by dissolving the active ingredient in a mixture of organic solvents and emulsifier, details of which are provided in the Table below. This IF50 is then mixed with a small, variable amount of acetone to aid dissolution, before addition of a 0.2% v/v aqueous solution of the adjuvant X-77 (which is a mixture of alkyl aryl polyoxyethylene glycols and free fatty acids in isopropanol, CAS Registry number 11097-66-8), as the aqueous diluent, to form an aqueous spray solution which contains a predetermined concentration of the active ingredient (which varies depending on the application rate of the active ingredient to the plants) and 0.2% v/v of the adjuvant X-77. This aqueous spray solution is then sprayed onto the plants, after one day's cultivation (for pre-emergence) or after about 12 days' cultivation (for post-emergence).
(§2) The test plants are then grown on, in a glasshouse (greenhouse) under controlled conditions (at either 24/18° C. or 20/16° C. (day/night) as mentioned above; 16 hours light; 65% humidity) and are watered twice daily. Either 14 or 15 days after application of the herbicide (14 or 15 DAA) (for post-emergence), or 20 days after application of the herbicide (20 DAA) (for pre-emergence), the test plants are evaluated visually, and an assessed percentage phytotoxicity score is given for each herbicidal application on each plant species (where 100%=total damage to plant; 0%=no damage to plant). Some of the typical test plants are as follows: Cool climate crop plants: Triticum aestivum (TRZAW, winter wheat), Brassica napus (BRSNN, rape, also called oilseed rape or rapeseed), Beta vulgaris (BEAVA, sugarbeet). Warm climate crop plants: Glycine max (GLXMA, soybean). Cool climate (“cool season”) grassy monocotyledonous weeds: Alopecurus myosuroides (ALOMY), Avena fatua (AVEFA), Lolium perenne (LOLPE), Poa annua (POAAN), Bromus tectorum (BROTE). Warm climate (“warm season”) grassy monocotyledonous weeds: Setaria faberi (SETFA), SORVU (Sorghum bicolor (L.) Moench ssp. Bicolor, or Sorghum vulgare Pers.), Digitaria sanguinalis (DIGSA), Echinochloa crus-galli (ECHCG), Brachiaria plantaginea (BRAPL), Zea mays (ZEAMX, corn, maize, e.g. volunteer corn), Panicum miliaceum (PANMI).

[2] = test system: Avena fatua (AVEFA); experiment: as above; settings: 14 or 15 DAA
Description: as §1, §2

[3] = test system: Brassica napus (BRSNN, rape); experiment: as above; settings: 14 or 15 DAA
Description: as §1, §2

[4] = test system: Digitaria sanguinalis (DIGSA); experiment: as above; settings: 14 or 15 DAA
Description: as §1, §2

[5] = test system: Glycine max (GLXMA, soybean); experiment: as above; settings: for percentage phytotoxicity score GLXMA: post-emergence, 14 or 15 DAA
Description: as §1, §2

[6] = test system: Lolium perenne (LOLPE); experiment: as above; settings: 14 or 15 DAA
Description: as §1, §2

[7] = test system: Setaria faberi (SETFA); experiment: as above; settings: 14 or 15 DAA
Description: as §1, §2

[8] = test system: Zea mays (ZEAMX, corn, maize, e.g. volunteer corn); experiment: as above; settings: 14 or 15 DAA
Description: as §1, §2

[9] = test system: grassy (in particular warm climate grassy) monocotyledonous weeds; experiment: Post-emergence herbicidal activity, summary statements on Biological Examples 1 to 3; settings: applied at about 250 g/ha post-emergence; Biological Examples 1 and 2
Description: Seeds of a variety of test plant species were sown in standard soil ** in pots. After cultivation for one day (pre-emergence) or after 8 days cultivation (post-emergence) under controlled conditions in a glasshouse (at 24/16° C., day/night; 14 hours light; 65% humidity), the plants were sprayed with an aqueous spray solution derived from the formulation of the technical active ingredient (the test herbicide) in acetone/water (50:50) solution containing 0.5% Tween 20 (polyoxyethylene sorbitan monolaurate, CAS Reg. No. 9005-64-5). The test plants were then grown on under controlled conditions in a glasshouse (at 24/16° C., day/night; 14 hours light; 65% humidity) and watered twice daily. 13 Days after application of the test herbicide, for pre- and post-emergence, the test was evaluated visually for percentage phytotoxicity to each plant (where 100%=total damage to plant; 0%=no damage to plant). Generally, each test herbicide is only tested on 1 plant per plant species for each application rate tested and for each application timing. ** The “standard soil” in Biological Example 1 is usually a “sand” or “sandy loam” type of soil.
Seeds of a variety of monocotyledonous and dicotyledonous test plants are sown in standard soil in pots. The plants are cultivated for one day (for pre-emergence) or for about 12 days (range=10-13 days) (for post-emergence) under controlled conditions in a glasshouse (warm climate species at 24/18° C., cool climate species at 20/16° C., both at day/night; 16 hours light; 65% humidity). An “instant formulation”, known as the “IF50”, containing 50 g/litre (i.e. 5% w/v) of the “technical” (i.e. unformulated) active ingredient is prepared by dissolving the active ingredient in a mixture of organic solvents and emulsifier, details of which are provided in the Table below. […]
The test plants are then grown on, in a glasshouse (greenhouse) under controlled conditions (at either 24/18° C. or 20/16° C. (day/night) as mentioned above; 16 hours light; 65% humidity) and are watered twice daily. Either 14 or 15 days after application of the herbicide (14 or 15 DAA) (for post-emergence), or 20 days after application of the herbicide (20 DAA) (for pre-emergence), the test plants are evaluated visually, and an assessed percentage phytotoxicity score is given for each herbicidal application on each plant species (where 100%=total damage to plant; 0%=no damage to plant). […]

[10] = 125 g/ha (rate taken from row order)
[11] = 250 g/ha (rate taken from row order)

C#CCC1CC(=O)C(c2c(F)cc(C#CC)cc2OC)C1=O (stereo not drawn) [Compound A8, 2-(2-fluoro-6-methoxy-4-prop-1-ynyl-phenyl)-4-prop-2-ynyl-cyclopentane-1,3-dione]
percentage phytotoxicity score ALOMY ([1]; 125 g/ha): 50%
percentage phytotoxicity score ALOMY ([1]; 250 g/ha): 70%
percentage phytotoxicity score AVEFA [2, 10]: 30%
percentage phytotoxicity score AVEFA [2, 11]: 70%
percentage phytotoxicity score BRSNN ([3]; 125 g/ha): 40%
percentage phytotoxicity score BRSNN ([3]; 250 g/ha): 60%
percentage phytotoxicity score DIGSA [4, 10]: 100%
percentage phytotoxicity score DIGSA [4, 11]: 100%
phytotoxicity against soybean (in words) ([5]; e.g. when applied at 30 g/ha post-emergence, see Biological Example 2): low or reasonably low phytotoxicity
percentage phytotoxicity score GLXMA ([5]; 125 g/ha): 10%
percentage phytotoxicity score GLXMA ([5]; 250 g/ha): 30%
percentage phytotoxicity score LOLPE [6, 10]: 30%
percentage phytotoxicity score LOLPE [6, 11]: 80%
percentage phytotoxicity score SETFA [7, 10]: 90%
percentage phytotoxicity score SETFA [7, 11]: 100%
percentage phytotoxicity score ZEAMX ([8]; 125 g/ha): 100%
percentage phytotoxicity score ZEAMX ([8]; 250 g/ha): 100%
post-emergent herbicidal potency against grassy monocotyledonous weeds (in words) [9]: potent post-emergent herbicides
